Assays:
[1] = Measurement of the approximate solubility (visual dissolution in solvent aliquots); assay type: physicochemical; settings: thermodynamic from solid
Protocol: Aliquots of various solvents were added to measured amounts of compound with agitation (typically sonication) at ambient or elevated temperatures until complete dissolution was achieved, as judged by visual observation.
The approximate solubility at ambient temperature must be known in order to carry out systematic crystallization experiments.

[2] = Dynamic vapor sorption (moisture sorption/desorption); assay type: physicochemical; settings: for Hygroscopicity: automated vapor sorption/desorption analysis, 5% to 95% RH
Protocol: Moisture sorption/desorption data were collected on a VTI SGA-100 Vapor Sorption Analyzer. Sorption and desorption data were collected over a range of 5% to 95% relative humidity (RH) at 10% RH intervals under an nitrogen purge. Samples were not dried prior to analysis. Equilibrium criteria used for analysis were less than 0.0100% weight change in 5 minutes, with a maximum equilibration time of 3 hours if the weight criterion was not met. Data were not corrected for the initial moisture content of the samples. NaCl and PVP were used as calibration standards.

[3] = assay type: physicochemical
Protocol: The starting crystal Form was heated to 120° C. and the resulting material was analyzed by XRPD.
The XRPD results of crystalline Form E (FIG. 2) show good crystallinity. […] (FIG. 6). […] The XRPD results of crystalline Forms E+C (FIG. 3) show good crystallinity. Differential scanning calorimetry results for crystalline Forms E+C were very similar to that of Form E (FIG. 7). […] Form conversion was complete by 125° C. in the solid state.

[4] = Interconversion slurries of crystal forms; assay type: physicochemical; settings: for Relationship of forms C and E: from DSC data and interconversion results, transition temperature less than ambient
Description: Crystal forms of the compound of Formula (I) were weighed out in approximately equal amounts and combined as desired. Aliquots of saturated solutions of compound in various solvents were filtered (0.2-μm nylon filter) into vials containing solid mixtures such that undissolved solids were present. The mixture was then agitated by either loading it onto an orbit shaker or adding a cross-shaped stir bar and allowing the mixture to stir in a sealed vial at stated conditions. The solids were isolated by vacuum filtration and analyzed.
Interconversion slurries were conducted as individual pairings between the E+C mixture and Form E material and between forms C and E. The experiments were carried out in cyclohexane and acetone:water 20:80, at room temperature for 7 days. Additional slurries were set up in toluene at room temperature for 1 day and at approximately 5° C. for 2 days.
A second set of interconversion slurries was conducted in which all unique patterns were slurried together at 50° C. in cyclohexane and ethanol:water 50:50. […]

What does the source list for `N#Cc1ccc(N2CCC[C@@H]2C(O)C(F)(F)F)cc1C(F)(F)F` (stereo partly drawn) [Compound of Formula (I)]?
solubility ([1]; aqueous with cosolvent or surfactant or cyclodextrin, ambient, 1,4-dioxane/water 20:80 v/v): < 2 mg/mL; solubility ([1]; aqueous with cosolvent or surfactant or cyclodextrin, ambient, 1-propanol/water 20:80 v/v): < 2 mg/mL; solubility ([1]; aqueous with cosolvent or surfactant or cyclodextrin, ambient, 2,2,2-trifluoroethanol/water 20:80 v/v): < 2 mg/mL; solubility ([1]; aqueous with cosolvent or surfactant or cyclodextrin, ambient, acetone/water 20:80 v/v): < 2 mg/mL; solubility ([1]; aqueous with cosolvent or surfactant or cyclodextrin, ambient, acetone/water 50:50 v/v): 9 mg/mL; solubility ([1]; aqueous with cosolvent or surfactant or cyclodextrin, ambient, acetonitrile/water 20:80 v/v): < 2 mg/mL; solubility ([1]; aqueous with cosolvent or surfactant or cyclodextrin, ambient, ethanol/water 20:80 v/v): < 2 mg/mL; solubility ([1]; aqueous with cosolvent or surfactant or cyclodextrin, ambient, hexafluoroisopropanol/water 20:80 v/v): < 2 mg/mL; solubility ([1]; aqueous with cosolvent or surfactant or cyclodextrin, ambient, isopropanol/water 20:80 v/v): < 2 mg/mL; solubility ([1]; aqueous with cosolvent or surfactant or cyclodextrin, ambient, methanol/water 20:80 v/v): < 2 mg/mL; solubility ([1]; aqueous with cosolvent or surfactant or cyclodextrin, ambient, tetrahydrofuran/water 20:80 v/v): < 2 mg/mL; solubility ([1]; organic solvent or mixture, ambient, 1,4-dioxane): > 111 mg/mL; solubility ([1]; organic solvent or mixture, ambient, 1-butanol): 37 mg/mL; solubility ([1]; organic solvent or mixture, ambient, 1-propanol): 55 mg/mL; solubility ([1]; organic solvent or mixture, ambient, 2,2,2-trifluoroethanol): 51 mg/mL; solubility ([1]; organic solvent or mixture, ambient, 2-butanone): > 107 mg/mL; solubility ([1]; organic solvent or mixture, ambient, acetone): > 112 mg/mL; solubility ([1]; organic solvent or mixture, ambient, acetonitrile): > 110 mg/mL; solubility ([1]; organic solvent or mixture, ambient, chloroform): 37 mg/mL; solubility ([1]; organic solvent or mixture, ambient, cyclohexane): < 2 mg/mL; solubility ([1]; organic solvent or mixture, ambient, dichloromethane): 37 mg/mL; solubility ([1]; organic solvent or mixture, ambient, diethyl ether): 58 mg/mL; solubility ([1]; organic solvent or mixture, ambient, ethanol): > 104 mg/mL; solubility ([1]; organic solvent or mixture, ambient, ethyl acetate): > 108 mg/mL; solubility ([1]; organic solvent or mixture, ambient, hexafluoroisopropanol): > 106 mg/mL; solubility ([1]; organic solvent or mixture, ambient, hexanes): < 2 mg/mL; solubility ([1]; organic solvent or mixture, ambient, isopropanol): > 102 mg/mL; solubility ([1]; organic solvent or mixture, ambient, isopropyl ether): 55 mg/mL; solubility ([1]; organic solvent or mixture, ambient, methanol): > 116 mg/mL; solubility ([1]; organic solvent or mixture, ambient, methyl isobutyl ketone): > 100 mg/mL; solubility ([1]; organic solvent or mixture, ambient, tert-butyl methyl ether): > 111 mg/mL; solubility ([1]; organic solvent or mixture, ambient, tetrahydrofuran): > 102 mg/mL; solubility ([1]; organic solvent or mixture, ambient, toluene): 15 mg/mL; solubility ([1]; ambient, water): < 2 mg/mL

For `N#Cc1ccc(N2CCC[C@@H]2C(O)C(F)(F)F)cc1C(F)(F)F` (stereo partly drawn) [Form B], which Hydrate formation [2] is on record?
Its Hydrate formation is “does not show any evidence of hydrate formation”.

And the Stability over humidity [2]?
Its Stability over humidity is “stable over a wide range of humidity”.

And the “Temperature of likely form transformation upon heating” value [3]?
Its value is “approximately 150 °C”.

For `N#Cc1ccc(N2CCC[C@@H]2C(O)C(F)(F)F)cc1C(F)(F)F` (stereo partly drawn) [Form C], which Hydrate formation [2] is on record?
Its Hydrate formation is “does not show any evidence of hydrate formation”.

What about the Stability over humidity [2] of the same compound?
Its Stability over humidity is “stable over a wide range of humidity”.

And the Water uptake ([2]; DVS, FIG. 9)?
The Water uptake was “negligible water uptake”.

What about the Hygroscopicity [2] of the same compound?
Its Hygroscopicity is “non-hygroscopic”.

What about the “Most stable form in slurry of all forms” value ([4]; 50° C., 7 days, cyclohexane and ethanol:water 50:50) of the same compound?
Its value is “most stable form”.

And the “Thermodynamic stability among crystal forms” value ([4]; cyclohexane, acetone:water 20:80, toluene at ambient temperature, ethanol:water 50:50 at approximately 50° C.)?
The value was “most thermodynamically stable form”.

And the “Relationship of forms C and E” value [4]?
The value was “enantiotropic”.

What about the “Form stability upon heating and cooling” value ([3]; heating to 150° C. and cooling down to ambient temperature) of the same compound?
Its value is “remained stable”.

What about the “Relative thermodynamic stability from heating study” value ([3]; starting crystal form heated to 120° C., XRPD) of the same compound?
The value was “thermodynamically more stable crystal form”.

Which Hygroscopicity ([2]; listed as E+C mixture) does the source give for `N#Cc1ccc(N2CCC[C@@H]2C(O)C(F)(F)F)cc1C(F)(F)F` (stereo partly drawn) [Form E + C] here?
Its Hygroscopicity is “slightly hygroscopic”.

And the “XRPD Result after heating” value ([3]; heated to 120° C.)?
The value was “Form C”.

With `N#Cc1ccc(N2CCC[C@@H]2C(O)C(F)(F)F)cc1C(F)(F)F` (stereo partly drawn) [Form E] as the compound, how does the Stability over humidity [2] read?
The Stability over humidity was “stable over a wide range of humidity”.

And the Hygroscopicity [2]?
Its Hygroscopicity is “slightly hygroscopic”.

And the “Relationship of forms C and E” value [4]?
Its value is “enantiotropic”.

And the “Most stable form in slurry” value ([4]; toluene at approximately 5° C.)?
Its value is “most stable form”.

What about the “Temperature at which form conversion was complete” value ([3]; VT-XRPD, solid state) of the same compound?
The value was no more than 125 °C.

What about the “Temperature of conversion to Form C upon heating” value ([3]; VT-XRPD, mixture of forms E+C observed at this temperature) of the same compound?
The value was 115 °C.

From patent US12319651B2, “Crystalline forms and methods of producing crystalline forms of a compound” (priority 2019, dated 2025)
